The values below are quoted from earlier work in patent US9920014B2, “Selective inhibition of bacterial topoisomerase I” (THE FLORIDA INTERNATIONAL BOARD OF TRUSTEES MODESTO A. …, priority 2013, dated 2018).

The IC50 is the concentration needed to halve the response being measured.

The series has as its target E. coli DNA topoisomerase I (Escherichia coli, UniProt P06612). Conditions: reported by Bansal et al. 2012; read-out: E. coli Topo I IC50 (literature value); cited from earlier work.

Sequence of E. coli DNA topoisomerase I (P06612 whole entry): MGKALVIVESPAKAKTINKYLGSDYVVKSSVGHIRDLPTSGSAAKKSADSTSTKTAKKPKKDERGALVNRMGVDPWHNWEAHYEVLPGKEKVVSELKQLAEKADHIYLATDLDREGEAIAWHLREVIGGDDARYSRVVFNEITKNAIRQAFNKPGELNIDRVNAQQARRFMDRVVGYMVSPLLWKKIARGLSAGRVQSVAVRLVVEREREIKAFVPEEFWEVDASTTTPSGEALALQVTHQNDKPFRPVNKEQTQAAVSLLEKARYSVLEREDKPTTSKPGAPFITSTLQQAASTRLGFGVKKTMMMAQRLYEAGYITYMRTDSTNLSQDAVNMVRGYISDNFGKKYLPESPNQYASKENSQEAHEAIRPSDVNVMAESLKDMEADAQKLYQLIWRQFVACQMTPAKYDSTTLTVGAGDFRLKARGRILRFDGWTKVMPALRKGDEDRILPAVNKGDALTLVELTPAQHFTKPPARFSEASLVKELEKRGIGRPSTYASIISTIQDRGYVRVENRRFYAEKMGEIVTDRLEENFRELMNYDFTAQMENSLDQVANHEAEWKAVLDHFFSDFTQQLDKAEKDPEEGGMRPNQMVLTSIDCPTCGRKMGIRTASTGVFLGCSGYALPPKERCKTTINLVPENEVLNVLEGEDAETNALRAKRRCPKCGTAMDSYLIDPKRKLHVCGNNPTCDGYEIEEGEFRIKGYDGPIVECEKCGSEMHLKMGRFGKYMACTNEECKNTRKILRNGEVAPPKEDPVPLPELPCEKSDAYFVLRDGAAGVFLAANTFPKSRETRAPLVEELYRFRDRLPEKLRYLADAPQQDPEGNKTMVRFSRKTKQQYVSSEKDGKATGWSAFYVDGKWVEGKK

Regarding `COc1ccc(-c2nc3ccc(-c4nc5ccc(N6CCN(C)CC6)cc5[nH]4)cc3[nH]2)cc1OC` [DMA], the IC50 is 3.8 µM.
